Test results as given in PubChem BioAssay (NCI).
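Assay format: 96-well plates, 48-hour exposure. TGI denotes the concentration required for complete inhibition of growth.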

Tests used:
Assay in all cases: DTP human tumour cell line panel, 48 h
CAKI-1 renal = test system: CAKI-1 renal
HOP-92 NSCLC = test system: HOP-92 NSCLC
M14 melanoma = test system: M14 melanoma
786-0 renal = test system: 786-0 renal
A498 renal = test system: A498 renal
SNB-78 CNS = test system: SNB-78 CNS
NCI-H522 lung = test system: NCI-H522 lung
OVCAR-8 ovarian = test system: OVCAR-8 ovarian
HCT-15 colon = test system: HCT-15 colon
RPMI-8226 leukemia = test system: RPMI-8226 leukemia
SR leukemia = test system: SR leukemia
RXF-631 renal = test system: RXF-631 renal
MALME-3M melanoma = test system: MALME-3M melanoma
HT29 colon = test system: HT29 colon
NCI-H23 lung = test system: NCI-H23 lung
SN12C renal = test system: SN12C renal
UACC-62 melanoma = test system: UACC-62 melanoma
SF-295 CNS = test system: SF-295 CNS
LOX IMVI melanoma = test system: LOX IMVI melanoma
OVCAR-4 ovarian = test system: OVCAR-4 ovarian
A549 NSCLC = test system: A549 NSCLC
OVCAR-3 ovarian = test system: OVCAR-3 ovarian
SNB-75 CNS = test system: SNB-75 CNS
SW-620 colon = test system: SW-620 colon
UACC-257 melanoma = test system: UACC-257 melanoma
DMS 273 small cell lung = test system: DMS 273 small cell lung
OVCAR-5 ovarian = test system: OVCAR-5 ovarian
SNB-19 CNS = test system: SNB-19 CNS
HCT-116 colon = test system: HCT-116 colon
U251 CNS = test system: U251 CNS
XF 498 CNS = test system: XF 498 CNS
NCI-H226 lung = test system: NCI-H226 lung
HOP-18 NSCLC = test system: HOP-18 NSCLC
UO-31 renal = test system: UO-31 renal
M19-MEL melanoma = test system: M19-MEL melanoma
SK-OV-3 ovarian = test system: SK-OV-3 ovarian
RXF 393 renal = test system: RXF 393 renal
EKVX NSCLC = test system: EKVX NSCLC
HOP-62 NSCLC = test system: HOP-62 NSCLC
DMS 114 small cell lung = test system: DMS 114 small cell lung
SK-MEL-28 melanoma = test system: SK-MEL-28 melanoma
MOLT-4 leukemia = test system: MOLT-4 leukemia
SF-268 CNS = test system: SF-268 CNS
ACHN renal = test system: ACHN renal
DLD-1 colon = test system: DLD-1 colon
K-562 leukemia = test system: K-562 leukemia
LXFL 529 NSCLC = test system: LXFL 529 NSCLC
SK-MEL-5 melanoma = test system: SK-MEL-5 melanoma
HL-60(TB) leukemia = test system: HL-60(TB) leukemia
KM20L2 colon = test system: KM20L2 colon
SK-MEL-2 melanoma = test system: SK-MEL-2 melanoma
CCRF-CEM leukemia = test system: CCRF-CEM leukemia
KM12 colon = test system: KM12 colon
SF-539 CNS = test system: SF-539 CNS
IGROV1 ovarian = test system: IGROV1 ovarian
NCI-H460 lung = test system: NCI-H460 lung
TK-10 renal = test system: TK-10 renal
HCC-2998 colon = test system: HCC-2998 colon
COLO 205 colon = test system: COLO 205 colon

With N#C/C(=C\c1c(Cl)cccc1Cl)c1ccccc1 the TGI (CAKI-1 renal) was > 100 µM, the TGI (HOP-92 NSCLC) was 41.1 µM and the TGI (M14 melanoma) was > 76.3 µM. The TGI (786-0 renal) was > 56.6 µM, the TGI (A498 renal) was 25.4 µM and the TGI (SNB-78 CNS) was > 66.8 µM. The TGI (NCI-H522 lung) was 40.9 µM, the TGI (OVCAR-8 ovarian) was > 100 µM and the TGI (HCT-15 colon) was > 100 µM. The TGI (RPMI-8226 leukemia) was > 100 µM, the TGI (SR leukemia) was 6.04 µM and the TGI (RXF-631 renal) was > 100 µM. For the same molecule, the TGI (MALME-3M melanoma) was 56 µM, the TGI (HT29 colon) was > 59.5 µM and the TGI (NCI-H23 lung) was > 87.9 µM. For the same molecule, the TGI (SN12C renal) was > 69.5 µM, the TGI (UACC-62 melanoma) was > 31.3 µM and the TGI (SF-295 CNS) was 65.5 µM. For the same molecule, the TGI (LOX IMVI melanoma) was > 68.5 µM, the TGI (OVCAR-4 ovarian) was > 96.3 µM and the TGI (A549 NSCLC) was > 100 µM. For the same molecule, the TGI (OVCAR-3 ovarian) was 19.9 µM, the TGI (SNB-75 CNS) was 7.76 µM and the TGI (SW-620 colon) was > 100 µM. For the same molecule, the TGI (UACC-257 melanoma) was > 100 µM, the TGI (DMS 273 small cell lung) was 11.8 µM and the TGI (OVCAR-5 ovarian) was > 100 µM. The TGI (SNB-19 CNS) was 78.5 µM, the TGI (HCT-116 colon) was > 100 µM and the TGI (U251 CNS) was > 90.1 µM. For the same molecule, the TGI (XF 498 CNS) was 33.4 µM, the TGI (NCI-H226 lung) was > 48.9 µM and the TGI (HOP-18 NSCLC) was > 100 µM. The TGI (UO-31 renal) was > 100 µM, the TGI (M19-MEL melanoma) was > 100 µM and the TGI (SK-OV-3 ovarian) was > 65.9 µM. The TGI (RXF 393 renal) was 25.7 µM, the TGI (EKVX NSCLC) was > 100 µM and the TGI (HOP-62 NSCLC) was > 31.4 µM. For the same molecule, the TGI (DMS 114 small cell lung) was > 39.5 µM, the TGI (SK-MEL-28 melanoma) was > 100 µM and the TGI (MOLT-4 leukemia) was > 66.5 µM. For the same molecule, the TGI (SF-268 CNS) was > 100 µM, the TGI (ACHN renal) was > 100 µM and the TGI (DLD-1 colon) was > 100 µM. For the same molecule, the TGI (K-562 leukemia) was > 100 µM, the TGI (LXFL 529 NSCLC) was > 100 µM and the TGI (SK-MEL-5 melanoma) was > 46.8 µM. It also gave a TGI (HL-60(TB) leukemia) of 15.9 µM, a TGI (KM20L2 colon) of 21.8 µM and a TGI (SK-MEL-2 melanoma) of 39.3 µM. For the same molecule, the TGI (CCRF-CEM leukemia) was 11.9 µM, the TGI (KM12 colon) was > 100 µM and the TGI (SF-539 CNS) was 9.53 µM. The TGI (IGROV1 ovarian) was > 100 µM, the TGI (NCI-H460 lung) was > 58.5 µM and the TGI (TK-10 renal) was > 100 µM. The TGI (HCC-2998 colon) was > 100 µM and the TGI (COLO 205 colon) was 7.16 µM.
With Nc1nc(-c2ccccc2)cc(-c2ccccc2O)n1 the TGI (CAKI-1 renal) was > 100 µM, the TGI (HOP-92 NSCLC) was > 100 µM and the TGI (M14 melanoma) was > 100 µM. The TGI (786-0 renal) was > 100 µM, the TGI (A498 renal) was > 100 µM and the TGI (SNB-78 CNS) was > 100 µM. The TGI (NCI-H522 lung) was > 100 µM, the TGI (OVCAR-8 ovarian) was > 100 µM and the TGI (RPMI-8226 leukemia) was 75.8 µM. The TGI (SR leukemia) was > 100 µM, the TGI (RXF-631 renal) was > 100 µM and the TGI (MALME-3M melanoma) was > 100 µM. The TGI (HT29 colon) was > 100 µM, the TGI (NCI-H23 lung) was > 100 µM and the TGI (SN12C renal) was > 100 µM. For the same molecule, the TGI (UACC-62 melanoma) was > 100 µM, the TGI (SF-295 CNS) was > 100 µM and the TGI (LOX IMVI melanoma) was > 100 µM. For the same molecule, the TGI (OVCAR-4 ovarian) was > 100 µM, the TGI (A549 NSCLC) was > 100 µM and the TGI (OVCAR-3 ovarian) was > 100 µM. The TGI (SNB-75 CNS) was 82.4 µM, the TGI (SW-620 colon) was > 100 µM and the TGI (UACC-257 melanoma) was > 100 µM. The TGI (DMS 273 small cell lung) was > 100 µM, the TGI (OVCAR-5 ovarian) was 68.2 µM and the TGI (SNB-19 CNS) was > 100 µM. The TGI (HCT-116 colon) was 49 µM, the TGI (U251 CNS) was > 100 µM and the TGI (XF 498 CNS) was > 100 µM. For the same molecule, the TGI (NCI-H226 lung) was 53.2 µM, the TGI (HOP-18 NSCLC) was > 100 µM and the TGI (UO-31 renal) was 28.7 µM. The TGI (M19-MEL melanoma) was > 100 µM, the TGI (SK-OV-3 ovarian) was > 100 µM and the TGI (RXF 393 renal) was 53.9 µM. For the same molecule, the TGI (EKVX NSCLC) was > 100 µM, the TGI (HOP-62 NSCLC) was 74.9 µM and the TGI (DMS 114 small cell lung) was > 100 µM. The TGI (SK-MEL-28 melanoma) was > 100 µM, the TGI (MOLT-4 leukemia) was 80.2 µM and the TGI (SF-268 CNS) was > 100 µM. The TGI (ACHN renal) was > 100 µM, the TGI (DLD-1 colon) was > 100 µM and the TGI (K-562 leukemia) was > 100 µM. The TGI (LXFL 529 NSCLC) was > 100 µM, the TGI (HL-60(TB) leukemia) was 43.5 µM and the TGI (KM20L2 colon) was > 100 µM. The TGI (CCRF-CEM leukemia) was > 100 µM, the TGI (KM12 colon) was 79.5 µM and the TGI (SF-539 CNS) was > 100 µM. The TGI (IGROV1 ovarian) was > 100 µM, the TGI (NCI-H460 lung) was > 100 µM and the TGI (TK-10 renal) was 98.2 µM. The TGI (HCC-2998 colon) was > 100 µM and the TGI (COLO 205 colon) was > 100 µM.
